Laboratory results reported in ChEMBL document CHEMBL3639072, “Heterocyclic derivatives and their use in the treatment of neurological disorders” (2014).
pIC50: −log10 of the molar value.

Legend:
Beta-secretase 1 = Beta-secretase 1 (Homo sapiens, UniProt P56817)
Beta-secretase 2 = target: T1, Beta-secretase 2 (Homo sapiens, UniProt Q9Y5Z0)
T1 sequence (Q9Y5Z0 whole entry): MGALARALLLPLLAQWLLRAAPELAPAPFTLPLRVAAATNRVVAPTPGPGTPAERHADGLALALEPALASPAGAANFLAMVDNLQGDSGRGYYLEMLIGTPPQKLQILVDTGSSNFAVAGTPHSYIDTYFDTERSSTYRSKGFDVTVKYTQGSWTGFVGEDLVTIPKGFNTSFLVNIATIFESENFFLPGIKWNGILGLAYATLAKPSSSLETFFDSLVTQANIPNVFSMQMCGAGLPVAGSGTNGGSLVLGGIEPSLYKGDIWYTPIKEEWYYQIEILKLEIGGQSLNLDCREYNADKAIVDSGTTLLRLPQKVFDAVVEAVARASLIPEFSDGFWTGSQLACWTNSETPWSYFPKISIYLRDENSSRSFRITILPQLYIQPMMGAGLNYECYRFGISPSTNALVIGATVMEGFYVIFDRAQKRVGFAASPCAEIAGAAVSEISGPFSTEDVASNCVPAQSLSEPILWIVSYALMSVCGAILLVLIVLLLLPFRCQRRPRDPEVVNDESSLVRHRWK

Sequence of Beta-secretase 1 (P56817 whole entry): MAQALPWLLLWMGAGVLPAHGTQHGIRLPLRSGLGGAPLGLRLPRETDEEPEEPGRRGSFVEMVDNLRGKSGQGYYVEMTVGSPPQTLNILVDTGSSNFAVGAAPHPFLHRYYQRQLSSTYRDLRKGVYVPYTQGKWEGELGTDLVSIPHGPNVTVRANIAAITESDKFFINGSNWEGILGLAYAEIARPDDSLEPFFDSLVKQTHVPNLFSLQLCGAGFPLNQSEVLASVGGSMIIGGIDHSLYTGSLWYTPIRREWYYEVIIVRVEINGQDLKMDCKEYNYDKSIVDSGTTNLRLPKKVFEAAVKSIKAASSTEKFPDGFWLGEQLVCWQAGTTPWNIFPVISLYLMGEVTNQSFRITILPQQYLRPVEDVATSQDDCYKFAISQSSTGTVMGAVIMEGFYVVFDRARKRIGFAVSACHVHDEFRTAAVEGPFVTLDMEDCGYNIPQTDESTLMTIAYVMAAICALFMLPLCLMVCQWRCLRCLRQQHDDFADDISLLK

| pIC50 (Beta-secretase 1) | pIC50 (Beta-secretase 2) | Structure (SMILES) |
| --- | --- | --- |
| 6.70 | 6.00 | C[C@@]1(c2nc(NC(=O)c3ncc(OCCCF)nc3N)ccc2F)CO[C@@](C)(C(F)(F)F)C(N)=N1 |
| 6.64 | 6.89 | Cc1cnc(C(=O)Nc2ccc(F)c([C@]3(C)CO[C@@](C)(C(F)(F)F)C(N)=N3)n2)c(C)n1 |
